From patent publication US8889732B2, “Fused heterocyclic compounds and thrombopoietin receptor activators” (Nissan Chemical Industries, Ltd., priority 2009, dated 2014)

Key:
UT7/EPO = assay: Proliferation of mother cell line UT7/EPO (no c-mpl); type: cell-based, human; conditions: UT7/EPO cells without c-mpl
Protocol: (§1) UT7/EPO-mpl is a stable transformed cell line obtained by introducing into human leukemic cell line UT7/EPO a vector that induces expression of human thrombopoietin receptor (c-mpl) under control of cytomegalovirus immediate-early promoter by the method of Takatoku et al. (J. Biol. Chem., 272:7259-7263 (1997)). […] These two cell lines were subcultured in IMDM (Invitrogen) containing 10% fetal bovine serum (Thermo Electron or BioWest) using a CO2 incubator (5% CO2, 37° C.).
The subcultured cells described above were washed twice with PBS and suspended in IMDM containing 10% fetal bovine serum at a cell density of 6×10^4 cells/ml. The cell suspension was transferred to a 96-well tissue culture plate (CORNING) in 100-μl aliquots. Then either thrombopoietin (Pepro Tech EC) or the compound of Synthetic Examples dissolved in dimethyl sulfoxide were diluted 83-fold with IMDM containing 10% fetal bovine serum and added to the aforementioned cell suspension in 20-μl aliquots. The cell suspension was incubated in a CO2 incubator (5% CO2, 37° C.) for 4 days. Cell proliferation was assayed using WST-8 reagent (Kishida Chemical Co., Ltd.) according to instructions by the manufacturer. […] The formazan pigment generated was detected by measuring the absorbance at 450 nm with a 96-well microplate reader (Nihon Molecular Devices, Spectramax 190).

[1] = target: T1, human thrombopoietin receptor (c-mpl) (Homo sapiens, UniProt P40238); assay: Stimulation of proliferation of thrombopoietin-dependent cell line UT7/EPO-mpl (WST-8); type: cell-based; conditions: for EC50: concentration yielding growth rate corresponding to 50% of growth of UT-7/EPO-mpl in the presence of 10 ng/mL TPO, 4 days incubation, WST-8
T1 construct: expressed in transfected cells
T1 sequence (P40238 26-635): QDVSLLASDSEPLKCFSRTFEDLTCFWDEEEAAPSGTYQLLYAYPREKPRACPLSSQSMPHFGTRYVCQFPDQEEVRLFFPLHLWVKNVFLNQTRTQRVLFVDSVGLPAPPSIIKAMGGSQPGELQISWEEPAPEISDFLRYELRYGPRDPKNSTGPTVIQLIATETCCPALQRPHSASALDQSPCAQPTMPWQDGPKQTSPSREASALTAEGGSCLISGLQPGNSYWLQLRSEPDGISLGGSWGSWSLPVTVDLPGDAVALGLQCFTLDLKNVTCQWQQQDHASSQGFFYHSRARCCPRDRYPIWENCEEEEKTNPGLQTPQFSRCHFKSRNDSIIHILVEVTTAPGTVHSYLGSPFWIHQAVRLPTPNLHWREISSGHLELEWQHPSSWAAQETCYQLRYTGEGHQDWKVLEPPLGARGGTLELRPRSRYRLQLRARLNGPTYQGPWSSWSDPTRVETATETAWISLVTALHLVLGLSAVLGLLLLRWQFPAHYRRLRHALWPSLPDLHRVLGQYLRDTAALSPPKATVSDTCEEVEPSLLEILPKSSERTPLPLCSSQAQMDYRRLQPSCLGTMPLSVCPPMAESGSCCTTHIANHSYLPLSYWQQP
Protocol: The responses of thrombopoietin receptor to the compounds of Synthetic Examples of the present invention were assayed using a human leukemic cell line, UT7/EPO-mpl.
as §1
The subcultured cells described above were washed twice with PBS and suspended in IMDM containing 10% fetal bovine serum at a cell density of 6×10^4 cells/ml. The cell suspension was transferred to a 96-well tissue culture plate (CORNING) in 100-μl aliquots. Then either thrombopoietin (Pepro Tech EC) or the compound of Synthetic Examples dissolved in dimethyl sulfoxide were diluted 83-fold with IMDM containing 10% fetal bovine serum and added to the aforementioned cell suspension in 20-μl aliquots. The cell suspension was incubated in a CO2 incubator (5% CO2, 37° C.) for 4 days. Cell proliferation was assayed using WST-8 reagent (Kishida Chemical Co., Ltd.) according to instructions by the manufacturer. A 10-μl aliquot of 5 mM WST-8 reagent solution was added to each well of the tissue culture plate, and the plate was incubated at 37° C. for 4 hours. The formazan pigment generated was detected by measuring the absorbance at 450 nm with a 96-well microplate reader (Nihon Molecular Devices, Spectramax 190).

| Compound | Effect on proliferation of UT7/EPO, the mother cell line (UT7/EPO) | Proliferation of thrombopoietin-responsive UT7/EPO-mpl cells ([1]; UT7/EPO-mpl cells) | EC50 [1] [nM] |
| --- | --- | --- | --- |
| TPO: thrombopoietin (Pepro Tech EC), a cytokine consisting of 332 amino acids | no response | stimulated |  |
| C/C(=N\NC(=O)c1ccc(C(=O)NCc2ccncc2)s1)c1nn(C)c(-c2ccc3c(c2)CCC3)c1O [compound 1] |  |  | 1.55 |
| C/C(=N\NC(=S)Nc1cccc(C(=O)O)c1)c1csc(-c2ccc3c(c2)CCC3)c1O [compound 59] |  |  | 53.1 |
| C/C(=N\NC(=O)c1ccc(C(=O)NCc2ccc(C(=O)NCCO)cc2)s1)c1csc(-c2ccc3c(c2)CCCC3)c1O [compound 69] |  |  | 0.357 |
